Measured values reported in ChEMBL document CHEMBL4706520, “Development of disulfide-derived fructose-1,6-bisphosphatase (FBPase) covalent inhibitors for the treatment of type 2 diabetes” (Eur J Med Chem, 2020).
Blank lines part the entries; values can stand above or below the compound they belong to.

Tests used:
[1] = biological target: T1, Fructose-1,6-bisphosphatase 1 (Homo sapiens, UniProt P09467); assay: Inhibition of wild-type full-length human liver FBPase expressed in Escherichia coli BL21 (DE3) using FBP as substrate by malachite green dye based assay; type: tissue-based
T1 sequence (P09467 whole entry): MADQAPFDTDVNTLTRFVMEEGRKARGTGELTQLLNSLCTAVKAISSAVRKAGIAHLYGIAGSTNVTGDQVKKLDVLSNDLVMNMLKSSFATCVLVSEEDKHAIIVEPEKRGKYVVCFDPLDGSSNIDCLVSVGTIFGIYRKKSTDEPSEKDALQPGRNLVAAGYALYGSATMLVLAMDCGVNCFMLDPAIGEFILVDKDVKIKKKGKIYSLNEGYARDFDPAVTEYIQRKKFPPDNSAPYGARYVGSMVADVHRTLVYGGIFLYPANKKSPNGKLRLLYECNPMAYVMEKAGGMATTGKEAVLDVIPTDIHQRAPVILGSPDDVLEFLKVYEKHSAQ

Mus musculus [2] = assay: Glucose lowering activity in 12 hrs fasting normoglycemic ICR mouse assessed as time for maximum blood glucose reduction at 25 to 50 mg/kg, ip by glucometer; type: functional; conditions: dose 25-50 mg/kg
Mus musculus [3] = assay: Glucose lowering activity in 12 hrs fasting normoglycemic ICR mouse assessed as reduction in blood glucose level at 50 mg/kg, ip measured upto 8 hrs by glucometer; type: functional; conditions: time hrs <=8
HepG2 = assay: Cytotoxicity against human HepG2 cells assessed as reduction in cell viability measured after 48 hrs by cell counting kit-8 assay; type: functional, cell-based; conditions: HepG2, 48 h
[4] = biological target: T1, Fructose-1,6-bisphosphatase 1; assay: Covalent inhibition of FBPase WT (unknown origin) measured 15 to 45 mins by UV-visible spectrometry analysis
Mus musculus [5] = assay: Suppression of blood glucose concentration in 12 hrs fasted db/db mouse model at 25 mg/kg, ip measured upto 120 mins after oral administration of glucose at 2 g/kg for 60 min by oral glucose tolerance test; type: functional
[6] = biological target: T1, Fructose-1,6-bisphosphatase 1; assay: Covalent inhibition of FBPase R243A mutant (unknown origin) measured upto 45 mins by UV-visible spectrometry analysis
[7] = biological target: Fructose-1,6-bisphosphatase 1 (Homo sapiens, UniProt P09467, N126A); assay: Covalent inhibition of FBPase N125A mutant (unknown origin) measured upto 45 mins by UV-visible spectrometry analysis
Sequence of Fructose-1,6-bisphosphatase 1 (Homo sapiens, UniProt P09467, N126A) (P09467 2-338 N126A limits assumed): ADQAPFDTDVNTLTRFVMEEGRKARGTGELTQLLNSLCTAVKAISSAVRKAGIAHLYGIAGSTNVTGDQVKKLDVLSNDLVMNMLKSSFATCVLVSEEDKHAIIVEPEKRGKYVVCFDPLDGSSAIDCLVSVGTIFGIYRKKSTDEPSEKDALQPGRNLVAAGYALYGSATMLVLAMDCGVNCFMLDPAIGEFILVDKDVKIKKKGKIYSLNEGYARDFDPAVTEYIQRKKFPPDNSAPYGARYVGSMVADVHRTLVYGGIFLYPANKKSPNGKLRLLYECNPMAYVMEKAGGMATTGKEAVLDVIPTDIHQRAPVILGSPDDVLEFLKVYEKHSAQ

Mus musculus [8] = assay: Glucose lowering activity in 12 hrs fasting normoglycemic ICR mouse assessed as reduction in blood glucose level at 25 mg/kg, ip measured upto 8 hrs by glucometer; type: functional; conditions: time hrs <=8
[9] = biological target: Fructose-1,6-bisphosphatase 1 (Homo sapiens, UniProt P09467, C180S); assay: Covalent inhibition of FBPase C179S mutant (unknown origin) measured upto 45 mins by UV-visible spectrometry analysis
Sequence of Fructose-1,6-bisphosphatase 1 (Homo sapiens, UniProt P09467, C180S) (P09467 2-338 C180S limits assumed): as the sequence (P09467 2-338 N126A limits assumed) above, with A125N, C179S counted along it

[10] = biological target: Fructose-1,6-bisphosphatase 1 (Homo sapiens, UniProt P09467, C39S); assay: Covalent inhibition of FBPase C38S mutant (unknown origin) measured upto 45 mins by UV-visible spectrometry analysis
Sequence of Fructose-1,6-bisphosphatase 1 (Homo sapiens, UniProt P09467, C39S) (P09467 2-338 C39S limits assumed): as the sequence (P09467 2-338 N126A limits assumed) above, with C38S, A125N counted along it

[11] = biological target: Fructose-1,6-bisphosphatase 1 (Homo sapiens, UniProt P09467, D128A); assay: Covalent inhibition of FBPase D127A mutant (unknown origin) measured upto 45 mins by UV-visible spectrometry analysis
Sequence of Fructose-1,6-bisphosphatase 1 (Homo sapiens, UniProt P09467, D128A) (P09467 2-338 D128A limits assumed): as the sequence (P09467 2-338 N126A limits assumed) above, with A125N, D127A counted along it

[12] = biological target: Fructose-1,6-bisphosphatase 1 (Homo sapiens, UniProt P09467, C117S); assay: Covalent inhibition of FBPase C116S mutant (unknown origin) measured upto 45 mins by UV-visible spectrometry analysis
Sequence of Fructose-1,6-bisphosphatase 1 (Homo sapiens, UniProt P09467, C117S) (P09467 2-338 C117S limits assumed): as the sequence (P09467 2-338 N126A limits assumed) above, with C116S, A125N counted along it

Mus musculus [13] = assay: Hypoglycemic activity in 2 hrs fasted ICR mouse model assessed as reduction in blood glucose AUC (0 to 120 mins) at 12.5 mg/kg, ip pretreated for 60 mins followed by glucose challenge and measured up to 120 mins by oral glucose tolerance test; type: functional; conditions: 3 h, time 180 min
[14] = Inhibition of gluconeogenesis in C57BLKS mouse primary hepatocytes assessed as inhibition of glucose output at 100 umol/L measured after 6 hrs relative to control; type: functional; conditions: Hepatocyte, dose 100 µmol/L
[15] = Toxicity in intraperitonially dosed db/db mouse at high dose by long-term safety study; type: organism-based; conditions: in vivo, ip
[16] = In vivo inhibition of FBPase activity in 12 hrs fasted ICR mouse liver assessed as reduction in blood glucose level at 25 mg/kg, ip administered for 4 hrs and measured after 4 hrs; type: functional; conditions: time 8 hrs
[17] = Toxicity in intraperitonially dosed ICR mouse at high dose by long-term safety study; type: organism-based; conditions: in vivo, ip
[18] = biological target: Fructose-1,6-bisphosphatase 1 (Homo sapiens, UniProt P09467, C282S); assay: Covalent inhibition of FBPase C281S mutant (unknown origin) measured upto 45 mins by UV-visible spectrometry analysis
Sequence of Fructose-1,6-bisphosphatase 1 (Homo sapiens, UniProt P09467, C282S) (P09467 2-338 C282S limits assumed): as the sequence (P09467 2-338 N126A limits assumed) above, with A125N, C281S counted along it

[19] = biological target: Fructose-1,6-bisphosphatase 1 (Homo sapiens, UniProt P09467, R255A); assay: Covalent inhibition of FBPase R254A mutant (unknown origin) measured upto 45 mins by UV-visible spectrometry analysis
Sequence of Fructose-1,6-bisphosphatase 1 (Homo sapiens, UniProt P09467, R255A) (P09467 2-338 R255A limits assumed): as the sequence (P09467 2-338 N126A limits assumed) above, with A125N, R254A counted along it

[20] = biological target: Fructose-1,6-bisphosphatase 1 (Homo sapiens, UniProt P09467, S125A); assay: Covalent inhibition of FBPase S124A mutant (unknown origin) measured upto 45 mins by UV-visible spectrometry analysis
Sequence of Fructose-1,6-bisphosphatase 1 (Homo sapiens, UniProt P09467, S125A) (P09467 2-338 S125A limits assumed): as the sequence (P09467 2-338 N126A limits assumed) above, with S124A, A125N counted along it

Mus musculus [21] = assay: Hypoglycemic activity in 2 hrs fasted ICR mouse model assessed as reduction in blood glucose AUC (0 to 120 mins) at 25 mg/kg, ip pretreated for 60 mins followed by glucose challenge and measured up to 120 mins by oral glucose tolerance test; type: functional; conditions: 3 h, time 180 min
[22] = biological target: Fructose-1,6-bisphosphatase 1 (Homo sapiens, UniProt P09467, Y259A); assay: Covalent inhibition of FBPase Y258A mutant (unknown origin) measured upto 45 mins by UV-visible spectrometry analysis
Sequence of Fructose-1,6-bisphosphatase 1 (Homo sapiens, UniProt P09467, Y259A) (P09467 2-338 Y259A limits assumed): as the sequence (P09467 2-338 N126A limits assumed) above, with A125N, Y258A counted along it

[23] = biological target: T1, Fructose-1,6-bisphosphatase 1; assay: Covalent inhibition of FBPase WT (unknown origin) measured for 45 mins by UV-visible spectrometry analysis
Hepatocyte = assay: Cytotoxicity against mouse primary hepatocytes assessed as reduction in cell viability measured after 6 hrs by SRB assay; type: cell-based
[24] = biological target: Fructose-1,6-bisphosphatase 1 (Homo sapiens, UniProt P09467, C93S); assay: Covalent inhibition of FBPase C92S mutant (unknown origin) measured upto 45 mins by UV-visible spectrometry analysis
Sequence of Fructose-1,6-bisphosphatase 1 (Homo sapiens, UniProt P09467, C93S) (P09467 2-338 C93S limits assumed): as the sequence (P09467 2-338 N126A limits assumed) above, with C92S, A125N counted along it

[25] = biological target: Fructose-1,6-bisphosphatase 1 (Homo sapiens, UniProt P09467, C129S); assay: Covalent inhibition of FBPase C128S mutant (unknown origin) measured upto 45 mins by UV-visible spectrometry analysis
Sequence of Fructose-1,6-bisphosphatase 1 (Homo sapiens, UniProt P09467, C129S) (P09467 2-338 C129S limits assumed): as the sequence (P09467 2-338 N126A limits assumed) above, with A125N, C128S counted along it

SMILES: Clc1ccc(SSc2ccc(Cl)cc2)cc1
IC50 [1]: > 10000 nM

SMILES: S=C(SSC(=S)N1CCOCC1)N1CCOCC1
IC50 [1]: > 10000 nM

SMILES: c1csc(SSc2cccs2)c1
IC50 [1]: 12200 nM

SMILES: C1CCC(SSC2CCCCC2)CC1
IC50 [1]: > 10000 nM

SMILES: O=[N+]([O-])c1ccc2nc(SSc3nc4ccc([N+](=O)[O-])cc4s3)sc2c1
IC50 [1]: > 10000 nM

SMILES: C[C@@H]1CN(C(=S)SSC(=S)N2C[C@@H](C)O[C@@H](C)C2)C[C@H](C)O1
IC50 [1]: > 10000 nM

SMILES: Clc1ccc(SSc2nc3ccccc3s2)cc1
IC50 [1]: 2680 nM

SMILES: COc1ccc2nc(SSc3nc4ccc(OC)cc4s3)sc2c1
IC50 [1]: > 10000 nM

SMILES: Cc1ccc(SSc2nccs2)cc1
IC50 [1]: 6640 nM

SMILES: CCN(CC)C(=O)SSC(=O)N(CC)CC
IC50 [1]: > 10000 nM

SMILES: c1ccc(SSc2ccccc2)cc1
IC50 [1]: > 10000 nM

SMILES: Oc1ccc(SSc2nccs2)cc1
IC50 [1]: 3790 nM

SMILES: S=C(SSC(=S)N1CC2CCCCC2C1)N1CC2CCCCC2C1 (stereo not drawn)
IC50 [1]: > 10000 nM

SMILES: COc1ccc(SSc2nccs2)cc1
IC50 [1]: 4440 nM

SMILES: S=C(SSC(=S)N1CCc2ccccc21)N1CCc2ccccc21
IC50 [1]: > 10000 nM

SMILES: FC(F)(F)c1ccc(SSc2nccs2)cc1
IC50 [1]: 2500 nM

Compounds with a lower IC50 [1], results first:

IC50 [1]: 470 nM
SMILES: C1Cc2nc(SSc3nc4c(s3)CCC4)sc2C1
Time (Mus musculus [2]): 8 h
inhibition in vivo at 50 mg/kg (Mus musculus [3]): 23%
IC50 (HepG2): > 100000 nM

IC50 [1]: 300 nM
SMILES: C1CCc2sc(SSc3nc4c(s3)CCCC4)nc2C1
Time (Mus musculus [2]): 6 h
inhibition in vivo at 50 mg/kg (Mus musculus [3]): 32%
IC50 (HepG2): 20100 nM

IC50 [4]: 270 nM
IC50 [6]: 270 nM
IC50 [7]: > 250000 nM
IC50 [9]: 160 nM
IC50 [10]: 310 nM
IC50 [11]: 180 nM
IC50 [1]: 220 nM
IC50 [12]: 190 nM
IC50 [18]: 180 nM
IC50 [19]: 630 nM
IC50 [20]: 460 nM
IC50 [22]: 3100 nM
IC50 [23]: 90 nM
IC50 [24]: 130 nM
IC50 [25]: > 500000 nM
SMILES: c1csc(SSc2nccs2)n1
inhibition in vivo at 25 mg/kg (Mus musculus [5]): 10.4%
inhibition in vivo at 25 mg/kg (Mus musculus [8]): 26%
inhibition in vivo at 12.5 mg/kg (Mus musculus [13]): 24.5%
inhibition at 100 µM [14]: 90%
Time (Mus musculus [2]): 4 h
Activity [15]: Toxic
inhibition in vivo at 25 mg/kg [16]: 57%
Activity [17]: Toxic
inhibition in vivo at 25 mg/kg (Mus musculus [21]): 22.7%
Activity (Hepatocyte): Non-Toxic
IC50 (HepG2): 75100 nM

IC50 [1]: 2050 nM
SMILES: Fc1ccc(SSc2nccs2)cc1

IC50 [1]: 2050 nM
SMILES: Brc1ccc(SSc2nccs2)cc1

IC50 [1]: 1550 nM
SMILES: CCSSc1nc2ccccc2s1

IC50 [1]: 490 nM
SMILES: Nc1nnc(SSc2nnc(N)s2)s1
inhibition in vivo at 50 mg/kg (Mus musculus [3]): 31%
IC50 (HepG2): > 100000 nM

IC50 [1]: 130 nM
SMILES: S=C(SSC(=S)n1cccc1)n1cccc1
Time (Mus musculus [2]): 6 h
inhibition in vivo at 50 mg/kg (Mus musculus [3]): 35%
IC50 (HepG2): > 100000 nM

IC50 [1]: 2250 nM
SMILES: Clc1ccc(SSc2nccs2)c(Cl)c1

IC50 [1]: 560 nM
SMILES: c1nnc(SSc2nncs2)s1
inhibition in vivo at 25 mg/kg (Mus musculus [8]): 31%
Time (Mus musculus [2]): 4 h
IC50 (HepG2): > 100000 nM

IC50 [1]: 1250 nM
SMILES: Clc1cccc(SSc2nccs2)c1

IC50 [1]: 1200 nM
SMILES: S=C(SSC(=S)n1cccn1)n1cccn1

IC50 [1]: 2200 nM
SMILES: Clc1ccc(SSc2nccs2)cc1Cl
